Measured values as given in patent US8481738B2, “Gonadotropin-releasing hormone receptor antagonists and methods relating thereto” (Neurocrine Biosciences, Inc., priority 2007, dated 2013).
pKi: −log10 of the molar value.

Target: T1, human GnRH receptor (Homo sapiens, UniProt P30968)
T1 construct: expressed in transfected cells; host or cells: RBL cells, stably transfected (in general)
T1 sequence (P30968 1-328): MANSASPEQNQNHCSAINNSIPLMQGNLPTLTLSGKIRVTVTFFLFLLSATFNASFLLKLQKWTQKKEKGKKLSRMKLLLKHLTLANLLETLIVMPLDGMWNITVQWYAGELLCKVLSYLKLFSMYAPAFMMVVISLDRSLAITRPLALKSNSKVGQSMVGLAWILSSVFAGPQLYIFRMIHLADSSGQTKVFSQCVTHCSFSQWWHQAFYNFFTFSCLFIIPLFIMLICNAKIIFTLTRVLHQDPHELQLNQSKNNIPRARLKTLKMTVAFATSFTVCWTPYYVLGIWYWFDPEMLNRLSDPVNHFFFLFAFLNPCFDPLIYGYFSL
Experiment: Peptide competition radioligand binding displacement assay, human GnRH receptor membranes
Conditions: one or more of the peptide competition human receptor binding assays
Procedure: cDNA's of human, rhesus macaque, rabbit, dog and rat GnRH receptors are cloned into pcDNA3.1 (+) (Invitrogen). Full length sequences of all receptors are confirmed by DNA sequencing. HEK 293, CHO, COS-7, or rat basophilic leukemia (RBL) cells are stably transfected with human, rat, or macaque GnRH receptors and high expressing single cell clones (Bmax≧0.4 pMol/mg membrane protein) are isolated and maintained in Dulbecco's Modified Eagles Medium (DMEM) with following supplements: 10 mM HEPES; 2 mM L-glutamine; 1 mM Sodium Pyruvate; 50 U/mL penicillin, 50 μg/mL streptomycin; 10% Heat-inactivated Fetal Bovine Serum and 200 μg/mL Geneticin (G-418-Sulfate). Non-essential amino acids (0.1 mM) (Irvine Scientific; Santa Ana, Calif.) are included in the RBL cell media.
In general, initial peptide radioligand binding assays are carried out using membranes from stably transfected RBL cells. RBL stable clones are found to more consistently express high levels of GnRH receptor and are therefore used for subsequent binding studies as well as Ca^++ flux and inositol phosphate accumulation assays. Transiently transfected COS-7 cells are used for preparation of membranes containing GnRH receptors from multiple species (as well as those of mutant receptors for other studies) because of the convenience for rapidly analyzing multiple receptors.
HEK293 cells stably transfected with the human GnRH receptor are grown for two days after achieving confluence then are harvested by striking tissue culture flasks against a firm surface. Cells are collected by centrifugation at 1000 g for 5 minutes. Cell pellets are resuspended in 5% sucrose and homogenized using a polytron homogenizer for two 15 second homogenization steps. Cell homogenates are then centrifuged for 5 minutes at 3000 g to remove nuclei and the supernatant subsequently centrifuged for 30 minutes at 44,000 g to collect the membrane fraction. The membrane pellet is resuspended in GnRH binding buffer (10 mM HEPES, pH 7.5, 150 mM NaCl and 0.1% BSA) and aliquots immediately snap-frozen in liquid nitrogen and stored at −80° C. Protein content of the membrane suspension is determined using the Bio-Rad protein assay kit (Bio-Rad).
RBL cells stably transfected with the human GnRH receptor are grown to 80% confluency prior to harvesting. The cells are incubated at 37° C. for 10 min in 0.5 mM EDTA/PBS (Ca^++, Mg^++ free), and are dislodged from the plate by gentle rapping of the flasks. Cells are collected and pelleted by centrifugation at 1000 g for 5 minutes. Cell pellets are resuspended in buffer (DPBS supplemented with 10 mM MgCl2, 2 mM EGTA, pH=7.4), and cell lysis is performed using a pressure cell and applying N2 at a pressure of 900 psi for 30 min at 4° C. Unbroken cells and larger debris were removed by centrifugation at 1200 g for 10 min at 4° C. The cell membrane supernatant is then centrifuged at 45,000 g and the resulting membrane pellet is resuspended in assay buffer and homogenized on ice using a tissue homogenizer. Protein concentrations are determined using the Coomassie Plus Protein Reagent kit. Membranes are aliquoted and stored at −80° C. until ready for use.
COS-7 cells transiently transfected with GnRH receptors from different species (human, macaque, dog, rabbit, rat) or mutant GnRH receptors are prepared by bulk electroporation. COS-7 cells are obtained from American Type Cell Culture (Manassas, Va.) and are maintained in Dulbeccos's modified Eagle's medium (DMEM) (MediaTech Inc., Herndon, Va.) containing 10% fetal bovine serum, 10 mM HEPES, 2 mM L-glutamine, 1 mM sodium pyruvate, 50 U/mL penicillin, 50 μg/mL streptomycin. COS-7 cells are seeded in 500 cm^2 tissue culture plates and grown to confluency prior to cell transfection. […]

In the case of `COC(=O)CCCOc1ccccc1N(C)C(=O)c1ccc(Cl)c(-c2cnc(C#N)cc2C)c1` [3-8], the pKi was ≥ 7.00.

With `COC(=O)CCCOc1cccc(C)c1N(C)C(=O)c1ccc(Cl)c(-c2cnc(C#N)cc2C)c1` [3-9] the pKi was ≥ 7.00.

In the case of `COC(=O)CCCOc1ccccc1N(C)C(=O)c1ccc(Cl)c(-c2cnc(C(F)(F)F)cc2C#N)c1` [3-10], the pKi was ≥ 7.00.

For `COC(=O)CCCOc1cccc(C)c1N(C)C(=O)c1ccc(Cl)c(-c2cnc(C(F)(F)F)cc2C#N)c1` [3-11], the pKi was ≥ 7.00.

For `COC(=O)CCCOc1c(F)cccc1N(C)C(=O)c1ccc(Cl)c(-c2cnc(C(F)(F)F)cc2C#N)c1` [3-12], the pKi was ≥ 7.00.

`Cc1cc(Cl)ncc1-c1cc(C(=O)N(C)c2ccccc2OCC(=O)O)ccc1Cl` [4-1, (2-{[4-Chloro-3-(6-chloro-4-methyl-pyridin-3-yl)-benzoyl]-methyl-amino}-phenoxy)-acetic acid] was tested, and the pKi was ≥ 7.00.

With `Cc1cc(Cl)ncc1-c1cc(C(=O)N(C)c2ccccc2OCCCC(=O)O)ccc1Cl` [4-2] the pKi was ≥ 7.00.

For `Cc1cc(Cl)ncc1-c1cc(C(=O)N(C)c2c(C)cccc2OCCCC(=O)O)ccc1Cl` [4-3], the pKi was ≥ 7.00.

For `Cc1cc(Cl)ncc1-c1cc(C(=O)N(C)c2cccc(F)c2OCCCC(=O)O)ccc1Cl` [4-4], the pKi was ≥ 7.00.

In the case of `Cc1cc(Cl)ncc1-c1cc(C(=O)N(C)c2ccccc2OCCCCC(=O)O)ccc1Cl` [4-5], the pKi was ≥ 7.00.

In the case of `Cc1cc(C(F)(F)F)ncc1-c1cc(C(=O)N(C)c2ccccc2OCCCC(=O)O)ccc1Cl` [4-6], the pKi was ≥ 7.00.

`Cc1cc(C(F)(F)F)ncc1-c1cc(C(=O)N(C)c2cccc(F)c2OCCCC(=O)O)ccc1Cl` [4-7] was tested, and the pKi was ≥ 7.00.

`Cc1cc(C#N)ncc1-c1cc(C(=O)N(C)c2c(C)cccc2OCCCC(=O)O)ccc1Cl` [4-8] was tested, and the pKi was ≥ 7.00.

For `Cc1cc(C#N)ncc1-c1cc(C(=O)N(C)c2cccc(F)c2OCCCC(=O)O)ccc1Cl` [4-9], the pKi was ≥ 7.00.

In the case of `CN(C(=O)c1ccc(Cl)c(-c2cnc(C(F)(F)F)cc2C#N)c1)c1ccccc1OCCCC(=O)O` [4-10], the pKi was ≥ 7.00.

For `Cc1cccc(OCCCC(=O)O)c1N(C)C(=O)c1ccc(Cl)c(-c2cnc(C(F)(F)F)cc2C#N)c1` [4-11], the pKi was ≥ 7.00.

With `CN(C(=O)c1ccc(Cl)c(-c2cnc(C(F)(F)F)cc2C#N)c1)c1cccc(F)c1OCCCC(=O)O` [4-12] the pKi was ≥ 7.00.

In the case of `Cc1cc(C#N)ncc1-c1cc(C(=O)N(C)c2ccccc2OCCCC(=O)O)ccc1Cl` [5-1, 4-(2-{[4-Chloro-3-(6-cyano-4-methyl-pyridin-3-yl)-benzoyl]-methyl-amino}-phenoxy)-butyric acid], the pKi was ≥ 7.00.

With `Cc1cccc(OCCCC(=O)O)c1N(C)C(=O)c1ccc(Cl)c(-c2ncc(C(F)(F)F)cc2Cl)c1` [5-3] the pKi was ≥ 7.00.

`Cc1cccc(OCCCC(=O)O)c1N(C)C(=O)c1ccc(Cl)c(-c2nc3ccccc3cc2C#N)c1` [5-4] was tested, and the pKi was ≥ 7.00.

For `CN(C(=O)c1ccc(Cl)c(-c2ccc(Cl)cc2C#N)c1)c1ccccc1OCCCC(=O)O` [5-6], the pKi was ≥ 7.00.

For `Cc1cc(Cl)ncc1-c1cc(C(=O)N(C)c2ccccc2OCC(N)=O)ccc1Cl` [6-1, N-(2-Carbamoylmethoxy-phenyl)-4-chloro-3-(6-chloro-4-methyl-pyridin-3-yl)-N-methyl-benzamide], the pKi was ≥ 7.00.

`CN(C)CCOc1ccccc1N(C)C(=O)c1ccc(Cl)c(-c2cnc(Cl)cc2Cl)c1` [7-1, 4-Chloro-3-(4,6-dichloro-pyridin-3-yl)-N-[2-(2-dimethylamino-ethoxy)-phenyl]-N-methyl-benzamide] was tested, and the pKi was ≥ 7.00.

In the case of `Cc1cccc(O)c1N(C)C(=O)c1ccc(Cl)c(-c2cnc(C(F)(F)F)cc2C#N)c1` [8-7], the pKi was ≥ 7.00.

`Cc1cc(C#N)ncc1-c1cc(C(=O)N(C)c2c(C)cccc2OCCCO)ccc1Cl` [9-5] was tested, and the pKi was ≥ 7.00.

In the case of `Cc1cccc(OCCCO)c1N(C)C(=O)c1ccc(Cl)c(-c2ccc(C(F)(F)F)cc2C#N)c1` [10-1, 4-Chloro-3-(2-cyano-4-trifluoromethyl-phenyl)-N-[2-(3-hydroxy-propoxy)-6-methyl-phenyl]-N-methyl-benzamide], the pKi was ≥ 7.00.

In the case of `CN(C(=O)c1ccc(Cl)c(-c2nc3ccccc3cc2C#N)c1)c1ccccc1OCCCO` [10-2, 4-chloro-3-(3-cyano-quinolin-2-yl)-N-[2-(3-hydroxy-propoxy)-phenyl]-N-methyl-benzamide], the pKi was ≥ 7.00.

For `Cc1cc(C#N)ncc1-c1cc(C(=O)N(C)c2ccccc2OCCC(=O)O)ccc1Cl` [11-1, 3-(2-{[4-Chloro-3-(6-cyano-4-methyl-pyridin-3-yl)-benzoyl]-methyl-amino}-phenoxy)-propionic acid], the pKi was ≥ 7.00.

`Cc1cc(Cl)ncc1-c1cc(C(=O)N(C)c2ccccc2OCCC(=O)O)ccc1Cl` [11-2] was tested, and the pKi was ≥ 7.00.

With `Cc1cc(C(F)(F)F)ncc1-c1cc(C(=O)N(C)c2ccccc2OCCC(=O)O)ccc1Cl` [11-3] the pKi was ≥ 7.00.

With `CN(C(=O)c1ccc(Cl)c(-c2cnc(C(F)(F)F)cc2C#N)c1)c1ccccc1OCCC(=O)O` [11-4, 3-(2-{[4-chloro-3-(4-cyano-6-trifluoromethyl-pyridin-3-yl)-benzoyl]-methyl-amino}-phenoxy)-propionic acid] the pKi was ≥ 7.00.

`Cc1cc(C(F)(F)F)ncc1-c1cc(C(=O)N(C)c2c(C)cccc2OCCC(=O)O)ccc1Cl` [11-5] was tested, and the pKi was ≥ 7.00.

In the case of `Cc1cc(C#N)ncc1-c1cc(C(=O)N(C)c2c(C)cccc2OCCC(=O)O)ccc1Cl` [11-6], the pKi was ≥ 7.00.

For `Cc1cccc(OCCC(=O)O)c1N(C)C(=O)c1ccc(Cl)c(-c2cnc(C(F)(F)F)cc2C#N)c1` [11-7], the pKi was ≥ 7.00.

For `Cc1cccc(OCCC(=O)O)c1N(C)C(=O)c1ccc(Cl)c(-c2ccc(C(F)(F)F)cc2C#N)c1` [11-8], the pKi was ≥ 7.00.

`COC(=O)CCCc1ccccc1N(C)C(=O)c1ccc(Cl)c(-c2cnc(C(F)(F)F)cc2C#N)c1` [13-3] was tested, and the pKi was ≥ 7.00.

For `Cc1cc(Cl)ncc1-c1cc(C(=O)N(C)c2ccccc2CCCC(=O)O)ccc1Cl` [14-1, 4-(2-{[4-Chloro-3-(6-chloro-4-methyl-pyridin-3-yl)-benzoyl]-methyl-amino}-phenyl)-butyric acid], the pKi was ≥ 7.00.

For `Cc1cc(C(F)(F)F)ncc1-c1cc(C(=O)N(C)c2ccccc2CCCC(=O)O)ccc1Cl` [14-2], the pKi was ≥ 7.00.

`Cc1cc(C#N)ncc1-c1cc(C(=O)N(C)c2ccccc2CCCC(=O)O)ccc1Cl` [14-3] was tested, and the pKi was ≥ 7.00.

With `CN(C(=O)c1ccc(Cl)c(-c2cnc(C(F)(F)F)cc2C#N)c1)c1ccccc1CCCC(=O)O` [14-4] the pKi was ≥ 7.00.

In the case of `CN(C(=O)c1ccc(Cl)c(-c2nc3ccccc3cc2C#N)c1)c1ccccc1CCCC(=O)O` [15-1, 4-(2-{[4-Chloro-3-(3-cyano-quinolin-2-yl)-benzoyl]-methyl-amino}-phenyl)-butyric acid], the pKi was ≥ 7.00.

With `CCOC(=O)CCOc1ccccc1N(C)C(=O)c1ccc(Cl)c(-c2cnc(C(F)(F)F)cc2C#N)c1` [16-2, 3-(2-{[4-chloro-3-(4-cyano-6-trifluoromethyl-pyridin-3-yl)-benzoyl]-methyl-amino}-phenoxy)-propionic acid ethyl ester] the pKi was ≥ 7.00.

`CCN(C(=O)c1ccc(Cl)c(-c2ncc(Cl)cc2Cl)c1)c1ccccc1OC` [17-2] was tested, and the pKi was ≥ 7.00.

In the case of `COc1ccccc1N(C(=O)c1ccc(Cl)c(-c2ncc(Cl)cc2Cl)c1)C1CC1` [18-1, 4-Chloro-N-cyclopropyl-3-(3,5-dichloro-pyridin-2-yl)-N-(2-methoxy-phenyl)-benzamide], the pKi was ≥ 7.00.

In the case of `CN(C(=O)c1ccc(Cl)c(-c2ncc(Cl)cc2Cl)c1)c1ccccc1O` [19-1, 4-Chloro-3-(3,5-dichloro-pyridin-2-yl)-N-(2-hydroxy-phenyl)-N-methyl-benzamide], the pKi was ≥ 7.00.
